The text below walks through data of article PMC2195641 (The Journal of Experimental Medicine, 1999).

In general, IC50 refers to the midpoint of a concentration-inhibition curve. A lower IC50 goes with higher potency.

The test has as its target T1, purified I-E^k molecules (Mus musculus, UniProt P04224+P04231).
T1 sequence (P04224 26-255): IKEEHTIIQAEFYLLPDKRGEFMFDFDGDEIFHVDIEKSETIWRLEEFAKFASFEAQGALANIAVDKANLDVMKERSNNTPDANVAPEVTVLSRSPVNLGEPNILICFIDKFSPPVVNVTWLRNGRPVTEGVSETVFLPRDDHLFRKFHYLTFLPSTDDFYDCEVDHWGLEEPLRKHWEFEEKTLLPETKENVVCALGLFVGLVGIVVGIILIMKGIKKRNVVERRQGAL
T1 sequence (P04231 1-232): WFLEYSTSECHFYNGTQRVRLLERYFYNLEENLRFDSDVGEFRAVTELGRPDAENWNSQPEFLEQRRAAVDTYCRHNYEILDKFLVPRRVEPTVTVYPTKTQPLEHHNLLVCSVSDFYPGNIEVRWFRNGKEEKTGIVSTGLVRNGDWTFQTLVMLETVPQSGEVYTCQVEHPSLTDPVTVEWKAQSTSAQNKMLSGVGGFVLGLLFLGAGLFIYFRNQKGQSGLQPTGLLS
Nature of the test: I-E^k binding assay.

Where a SMILES comes first, the peptide text is derived from it.

`CC[C@H](C)[C@H](NC(=O)[C@H](C)NC(=O)[C@H](C)NC(=O)[C@H](C)NC(=O)[C@H](C)NC(=O)[C@H](C)NC(=O)[C@H](C)NC(=O)[C@H](C)N)C(=O)N[C@@H](C)C(=O)N[C@@H](Cc1ccc(O)cc1)C(=O)N[C@@H](C)C(=O)N[C@@H](CCCCN)C(=O)N[C@@H](CCC(N)=O)C(=O)N[C@@H](C)C(=O)N[C@H](C(=O)N[C@@H](CCCCN)C(=O)O)[C@@H](C)O` [pMCC-A] (H-AAAAAAAIAYAKQATK-OH) displayed an IC50 of 0.036 µM. This lies in the double-digit nanomolar range.
